{"source": "patent US11447533B2", "about": "“Antimicrobial and anticancer peptides and conjugates and compositions, methods, articles and kits relating thereto” (George Mason Research Foundation, Inc., priority 2018, dated 2022)", "key": {"[1]": {"test": "Endotoxin binding: competitive displacement of BODIPY TR-Cadaverine from LTA", "parameters": "species or system Staphylococcus aureus", "conditions": "5 μM peptide; for LTA binding (BC displacement), in words: 10 μM BC, 10 μg/mL LTA, 10 mM Na-PO4; for higher degree of LTA binding than parent peptide: vs ATRA-1 / ATRA1-R3W2", "protocol": "FIGS. 2A-2B are graphs showing endotoxin binding. The figures depict the competitive displacement of BC from LPS/LTA by the peptides. 5 μM of each peptide was incubated with 10 μM BC and 10 μg/mL LPS from E. coli (0111:B4) or LTA from S. aureus. Fluorescence intensity was measured at excitation=580 nm and emission=620 nm. 10 μM BC without endotoxin was used as 100% displacement while 10 μM BC with 10 μg/mL LPS/LTA without any peptide as 0% displacement and the % displacement of BC by each peptide was calculated accordingly. […] had been used as a positive control. The horizontal dotted line coincides with the % displacement of BC by ATRA1 on the y-axis.\nFIGS. 6A-6B are graphs showing endotoxin (LPS (FIG. 6A) and LTA (FIG. 6B)) binding. Competitive displacement of BC from LPS/LTA. In each case, 5 μM peptide was incubated with 10 μM BC and 10 μg/mL LPS from E. coli (0111:B4) or LTA from S. aureus. Fluorescence intensity was measured using excitation=580 nm and emission=620 nm. As a positive control 10 μM BC without endotoxin was used as a reference for 100% displacement while 10 μM BC with 10 μg/mL LPS/LTA without any peptide as a negative control and a reference for 0% displacement. These controls were used to calculate % BC displacement for each peptide.\nEndotoxin Binding. The binding of endotoxin (LPS/LTA) was evaluated using a fluorogenic conjugateBODIPY TR-Cadaverine (BC). BC binds endotoxin loses its fluorescence. The peptide competitively displaces BC from endotoxin and the fluorescence is reestablished. Competitive inhibition of endotoxin-BC binding was utilized due to presence of peptides already in complexion with endotoxin. 25 μL of 20 μM of peptides in 10 mM Na—PO4 buffer were incubated with 25 μL of LPS (40 μg/mL) or LTA (40 μg/mL) for 15 min and then added with 50 μL of BC (20 uM). Peptides bind to LPS or LTA and competitively prevents BC bind to the endotoxin. BC loses its fluorescence on binding to endotoxin. The fluorescence intensity of the unbound BC was measured at excitation=580 nm and emission=620 nm.\nBC contains two functional moieties: BODIPY (boron-dipyrromethene) and cadaverine connected via a carboxamide. BODIPY is the fluorophore of BC and fluoresces in the free state in solution but loses fluorescence when bound to LPS/LTA. The competitive displacement of BC from LPS/LTA by AMPs and thus regeneration of the fluorescence has frequently been used to estimate the binding strength of AMPs with LPS/LTA. In the present studies, 5 μM of each peptide was used to displace BC from LPS/LTA. […] Such observation contradicts the initial assumption that substitution of Lys with arginine would result in increased efficiency of LPS binding. However, with sequential substitutions of Lys with arginine, starting with ATRA1-AR, peptide variants show increased LPS binding with each additional arginine substitution. In terms of LPS binding: ATRA1-AR<ATRA1-AR2<ATRA1-AR3. In ATRA1-R3, the lysine residues at 9th, 5th and 1st positions of ATRA1 were substituted with arginine. In ATRA1-R6 all of the lysine residues were replaced with arginine."}, "[2]": {"tested_on": "E. coli ML35p inner membrane", "test": "Inner membrane disruption (β-galactosidase leakage, ONPG)", "format": "cell-based, Escherichia coli", "protocol": "Interactions with Bacterial Membranes. Interaction of the peptides with bacterial membranes in different phosphate buffers were evaluated using E. coli ML35p, constructed in our laboratory. At first, competent cells of E. coli ML35 were produced by conventional competent cell preparation method, then transformed with pBR322 plasmid. Transformed colonies were selected after growing on Luria-agar containing 50 μg/mL ampicillin. A single transformed colony was grown in presence of ampicillin first in Luria broth and then in MHBII and stored as 20% glycerol stock at −80° C. This frozen stock, on the day of the experiment, was thawed and grown in MHBII containing ampicillin up to OD600 nm=0.8-0.9, washed with PBS and then suspended in the respective buffer up to the required OD600 nm for use.\nMembrane Disruptions. The outer and the inner membrane disruptions by the peptides were evaluated by incubating bacterial suspension with peptides and then measuring the activity of enzymes leaked out of the cells. 100 μL of 10× concentration of peptide in water was incubated with 900 μL bacterial suspension (OD600 nm˜0.1) in respective buffer for 3 hours at room temperature with gentle rotation. […]\nThe inner membrane disruption was tested by using the activity of β-galactosidase present in the […] of E. coli ML35p, which lacks lactose-permease. Peptides when disrupt the inner membrane enough to cause β-galactosidase to come out, the degree of disruption can be measured by the virtue of the kinetics of the enzyme and using a substrate called ortho-Nitrophenyl-β-galactoside (ONPG). β-galactosidase mediated hydrolyzed product of ONPG has an absorbance λmax=420 nm. Supernatant collected from the incubation of peptide with bacteria was added with ONPG solution in DPBS and incubated at 35° C. and continuous absorbance readings. The slope of the linear section of the absorbance curve (absorbance vs time), was used as a measure of membrane disruption and the % Disruption was calculated as: Equation 8: […]"}}, "data": [{"sequence": "KRAKKFFKKLK (SEQ ID NO: 4) [ATRA1-A]", "values": [{"measurement": "LTA binding (BC displacement), in words", "setting": "[1]", "result": "significantly lower LTA binding than ATRA1"}]}, {"sequence": "KRFKKFFKKLK (SEQ ID NO: 2) [ATRA1, first 11 residues of NA-CATH]", "values": [{"measurement": "inner membrane disruption relative to HCMAB", "setting": "[2]; 10 mM phosphate buffer", "result": "highest"}, {"measurement": "inner membrane disruption relative to HCMAB", "setting": "[2]; DPBS, HCMAB = 100%", "result": "below 10%"}]}, {"sequence": "KRFKKFFKKLKGGVIGVTFPF (SEQ ID NO: 38) [ATRA1-HYD, ATRA1 with hydrophobic tail of NA-CATH joined at the C-terminus by a short -GG- segment]", "values": [{"measurement": "higher degree of LTA binding than parent peptide", "setting": "[1]", "result": "~2", "unit": "fold"}]}, {"sequence": "KRFKKFFKKLKNSVKKRAKKFFKKPK (SEQ ID NO: 53) [NA-CATH26, first 26 residues of NA-CATH]", "values": [{"measurement": "LTA binding (BC displacement), in words", "setting": "[1]", "result": "bound LTA to a significantly lower degree than NA-CATH"}]}, {"sequence": "RRWKRFFKRWK (SEQ ID NO: 15) [ATRA1-R3W2]", "values": [{"measurement": "LTA binding (BC displacement), in words", "setting": "[1]", "result": "far effective than ATRA1 in binding LTA"}, {"measurement": "inner membrane disruption relative to HCMAB", "setting": "[2]; DPBS, HCMAB = 100%", "result": "highest degree of inner membrane disruption"}]}, {"sequence": "RRWKRFFKRWKGGVIGVTFPF (SEQ ID NO: 50) [ATRA1-R3W2-HYD, ATRA1-R3W2 with hydrophobic tail of NA-CATH joined by -GG-]", "values": [{"measurement": "higher degree of LTA binding than parent peptide", "setting": "[1]", "result": "~2", "unit": "fold"}]}]}
